System: small intestinal injury induced by an NSAID and a PPI
Experiment: Test 1: rate of change of hematocrit values in rats given an NSAID and a PPI
Type: in vivo, Wister male rats
Conditions: bacteria 1×10^9 cfu/animal oral once a day
Experimental: Frozen stocks of the following bacterial strains were statically cultured in GAM broth at 37° C. for 24 hours: the Bifidobacterium bifidum G9-1 strain (B. bifidum G9-1) (Accession No. NITE BP-817), the Bifidobacterium longum reference strain JCM 1217^T (B. longum JCM 1217) (purchased from Japan Collection of Microorganisms (JCM), RIKEN BioResource Research Center), the Bifidobacterium infantis reference strain JCM 1222^T (B. infantis JCM 1222) (purchased from JCM), the Bifidobacterium adolescentis reference strain JCM 1275^T (B. adolescentis JCM 1275) (purchased from JCM), and the Bifidobacterium dentium reference strain JCM 1195^T (B. dentium JCM 1195) (purchased from JCM). Each of the bacterial liquid cultures was inoculated into fresh GAM broth at a ratio (by volume) of liquid culture to GAM broth of 1:100, and statically cultured at 37° C. for 24 hours. […]
The centrifuged bacterial cells were suspended in 0.75 mL of physiological saline. […] The colonies appeared on the plates were counted, and the number of viable bacteria was calculated based on the dilution factor. […]
At the start of the experiments, the blood was collected from the tail vein with hematocrit capillary tubes (Thermo Fisher Scientific K.K.) to measure hematocrit values. […] After grouping, the body weight of the animals was measured for nine days, and one of the PPIs (10 mg/kg) was intraperitoneally administered twice a day. […]

## Bifidobacterium longum
Ibuprofen 10 mg/kg oral + lansoprazole 10 mg/kg i.p. twice a day, FIG. 7
  inhibitory effect on small intestinal injury (hematocrit reduction) induced by ibuprofen and lansoprazole: higher inhibitory effect
Ibuprofen 10 mg/kg oral + omeprazole 10 mg/kg i.p. twice a day, FIG. 4 (n=5)
  inhibitory effect on small intestinal injury (hematocrit reduction) induced by ibuprofen and omeprazole: higher inhibitory effect

From patent US20200338144A1, “AGENT FOR PREVENTING OR TREATING SMALL INTESTINAL INJURY INDUCED BY NON-STEROIDAL ANTI-INFLAMMATORY DRUG AND PROTON PUMP INHIBITOR” (priority 2017, published 2020)
